Results published in patent US20140206748A1, “COMPOSITIONS AND METHODS RELATED TO PROSTATE CANCER” (Regents of the University of Minnesota, priority 2013, published 2014).
Like-named read-outs stand apart in the source and are kept apart here.

Legend:
[1] = test system: LNCaP cells
Procedure: Normalized gene expression data was ranked using the Signal2Noise metric and GSEA was performed against 1000 random gene set permutations.

[2] = test system: LNCaP cells; settings: 0.1 nM DHT to 100 nM DHT
[3] = test system: androgen receptor (AR); assay: MMTV-Luc reporter assay in CWR-R1 early and CWR-R1 late cells; format: cell-based, human; settings: 1 nM mibolerone, 24 hours; CWR-R1 early vs CWR-R1 late cells
[4] = test system: CWR-R1 cells; settings: castrate conditions; 10 μM bicalutamide or 1 μM enzalutamide
[5] = test system: 22Rv1 cells; assay: Growth of 22Rv1 cells under castrate conditions (crystal violet staining); format: cell-based, human; settings: CSS; 10 μM bicalutamide or 1 μM enzalutamide
[6] = test system: castration-resistant prostate cancer patients; settings: Phase III trials; cited from earlier work

## C[C@]12CCC(=O)C[C@@H]1CC[C@@H]1[C@@H]2CC[C@]2(C)[C@@H](O)CC[C@@H]12 [DHT, dihydrotestosterone]
[1]; 1 nM DHT and 100 nM DHT datasets
  enrichment of the "full-length AR" signature (GSEA): positive enrichment
[1]; 1 nM DHT dataset (GSE26483)
  enrichment of the "AR-V-specific" signature (GSEA): positive enrichment
[1]; 100 nM DHT dataset (GSE7868)
  enrichment of the "AR-V-specific" signature (GSEA): strong negative enrichment
[2]
  PSA expression: increased concomitant with increasing androgen concentration
  expression of M-phase genes UBE2C, CDCA5, ZWINT, and CCNA2: biphasic response

## C[C@@H]1CC2=CC(=O)CC[C@@H]2[C@H]2CC[C@@]3(C)[C@@H](CC[C@]3(C)O)[C@@H]21 [mibolerone]
[3]
  AR transactivation (MMTV-Luc) in response to androgen: higher in CWR-R1 early cells than CWR-R1 late cells

## CNC(=O)c1ccc(N2C(=S)N(c3ccc(C#N)c(C(F)(F)F)c3)C(=O)C2(C)C)cc1F [enzalutamide]
[4]
  androgen-independent growth of deletion-enriched CWR-R1 cells: insensitive
[5]
  growth of 22Rv1 cells under castrate conditions: unaffected
[6]
  increase of overall survival: 4.8 months
